Measurements: PubChem BioAssay (NCI)
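Protocol summary: plate cells (96-well), add compound at 5 concentrations, incubate 48 h, interpolate endpoints linearly. Here, GI50 denotes the concentration required for 50% inhibition of growth. At the TGI there is no net growth.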

Assays:
Test in all cases: NCI tumour cell line growth inhibition, 48 h
SK-OV-3 ovarian = tested on: SK-OV-3 ovarian
NCI-H460 lung = tested on: NCI-H460 lung
NCI-H23 lung = tested on: NCI-H23 lung
UACC-257 melanoma = tested on: UACC-257 melanoma
HOP-92 NSCLC = tested on: HOP-92 NSCLC
HT29 colon = tested on: HT29 colon
KM12 colon = tested on: KM12 colon
OVCAR-5 ovarian = tested on: OVCAR-5 ovarian
OVCAR-3 ovarian = tested on: OVCAR-3 ovarian
OVCAR-4 ovarian = tested on: OVCAR-4 ovarian

## COc1cccc(C2=C(c3cn(C)c4cccc(OC)c34)C(=O)NC2=O)c1
SK-OV-3 ovarian
  GI50: 11.6 µM
  TGI: > 25 µM
NCI-H460 lung
  GI50: 8.75 µM
  TGI: > 25 µM
NCI-H23 lung
  GI50: 19.6 µM
  TGI: > 25 µM
UACC-257 melanoma
  GI50: > 15.9 µM
  TGI: > 25 µM
HOP-92 NSCLC
  GI50: 8.89 µM
  TGI: > 25 µM
HT29 colon
  GI50: 5.34 µM
  TGI: > 25 µM
KM12 colon
  GI50: 6.01 µM
  TGI: > 25 µM
OVCAR-5 ovarian
  GI50: > 23.5 µM
  TGI: > 25 µM
OVCAR-3 ovarian
  GI50: 7.74 µM
  TGI: > 25 µM
OVCAR-4 ovarian
  GI50: > 21.3 µM
  TGI: > 25 µM

## Oc1c(CN2CCOCC2)cc(COCc2ccccc2)c2cccnc12
SK-OV-3 ovarian
  GI50: 3 µM
  TGI: 22.2 µM
NCI-H460 lung
  GI50: 0.756 µM
  TGI: 53.3 µM
NCI-H23 lung
  GI50: 3.25 µM
  TGI: > 100 µM
UACC-257 melanoma
  GI50: 2.58 µM
  TGI: 7.84 µM
HOP-92 NSCLC
  GI50: 41.6 µM
  TGI: > 100 µM
HT29 colon
  GI50: 19.8 µM
  TGI: 65.4 µM
KM12 colon
  GI50: 3.73 µM
  TGI: > 100 µM
OVCAR-5 ovarian
  GI50: 5.08 µM
  TGI: > 100 µM
OVCAR-3 ovarian
  GI50: 2.49 µM
  TGI: > 100 µM
OVCAR-4 ovarian
  GI50: 1.97 µM
  TGI: > 100 µM

## COc1cc(-c2nn(-c3ccc(NC(=O)c4cc(Cl)cc(Cl)c4)cc3)cc2-c2ccncc2)ccc1Cl
SK-OV-3 ovarian
  GI50: > 100 µM
  TGI: > 100 µM
NCI-H460 lung
  GI50: 8.48 µM
  TGI: > 100 µM
NCI-H23 lung
  GI50: > 100 µM
  TGI: > 100 µM
UACC-257 melanoma
  GI50: > 100 µM
  TGI: > 100 µM
HOP-92 NSCLC
  GI50: > 100 µM
  TGI: > 100 µM
HT29 colon
  GI50: 3.53 µM
  TGI: > 100 µM
KM12 colon
  GI50: 3.27 µM
  TGI: > 100 µM
OVCAR-5 ovarian
  GI50: > 100 µM
  TGI: > 100 µM
OVCAR-3 ovarian
  GI50: > 100 µM
  TGI: > 100 µM
OVCAR-4 ovarian
  GI50: > 100 µM
  TGI: > 100 µM

## O=S(=O)(O)ONC1=NCCN1
SK-OV-3 ovarian
  GI50: > 100 µM
  TGI: > 100 µM
NCI-H460 lung
  GI50: > 100 µM
  TGI: > 100 µM
NCI-H23 lung
  GI50: 94.2 µM
  TGI: > 100 µM
UACC-257 melanoma
  GI50: > 100 µM
  TGI: > 100 µM
HOP-92 NSCLC
  GI50: > 100 µM
  TGI: > 100 µM
HT29 colon
  GI50: 58.1 µM
  TGI: > 100 µM
KM12 colon
  GI50: > 100 µM
  TGI: > 100 µM
OVCAR-5 ovarian
  GI50: > 100 µM
  TGI: > 100 µM
OVCAR-3 ovarian
  GI50: > 100 µM
  TGI: > 100 µM
OVCAR-4 ovarian
  GI50: > 100 µM
  TGI: > 100 µM

## O=[As]c1ccc(C(=O)c2ccc(Oc3ccccc3)cc2)cc1 (centres undefined)
SK-OV-3 ovarian
  GI50: 0.12 µM
  TGI: 0.249 µM
NCI-H460 lung
  GI50: 0.0439 µM
  TGI: 0.183 µM
NCI-H23 lung
  GI50: 0.0751 µM
  TGI: 0.242 µM
UACC-257 melanoma
  GI50: 0.0431 µM
  TGI: 0.171 µM
HOP-92 NSCLC
  GI50: 0.159 µM
  TGI: 0.361 µM
HT29 colon
  GI50: 0.0379 µM
  TGI: 0.154 µM
KM12 colon
  GI50: 0.0532 µM
  TGI: 0.177 µM
OVCAR-5 ovarian
  GI50: 0.129 µM
  TGI: 0.264 µM
OVCAR-3 ovarian
  GI50: 0.0243 µM
  TGI: 0.0608 µM
OVCAR-4 ovarian
  GI50: 0.0469 µM
  TGI: 0.171 µM

## COc1ccc(C(=O)O/N=C2/CCC/C2=C\c2ccccc2)cc1
SK-OV-3 ovarian
  TGI: > 100 µM
NCI-H460 lung
  TGI: > 100 µM
NCI-H23 lung
  TGI: > 100 µM
UACC-257 melanoma
  TGI: > 100 µM
HOP-92 NSCLC
  TGI: > 100 µM
HT29 colon
  TGI: > 100 µM
KM12 colon
  TGI: > 100 µM
OVCAR-5 ovarian
  TGI: > 100 µM
OVCAR-3 ovarian
  TGI: > 100 µM
OVCAR-4 ovarian
  TGI: > 100 µM

## COc1ccc(/C=N/N=C(\[O-])c2ccncc2)cc1F.COc1ccc(/C=N\N=C(/[O-])c2ccncc2)cc1F.[Cu+2]
SK-OV-3 ovarian
  GI50: 11.8 µM
  TGI: 24.1 µM
NCI-H460 lung
  GI50: 13.6 µM
  TGI: 26.5 µM
NCI-H23 lung
  GI50: 25.4 µM
  TGI: 58.2 µM
UACC-257 melanoma
  GI50: 17.9 µM
  TGI: 40.2 µM
HOP-92 NSCLC
  GI50: 19.1 µM
  TGI: 38.6 µM
HT29 colon
  GI50: 24.1 µM
  TGI: 69 µM
KM12 colon
  GI50: 16.2 µM
  TGI: 39 µM
OVCAR-5 ovarian
  GI50: 18.6 µM
  TGI: 32.7 µM
OVCAR-3 ovarian
  GI50: 27.3 µM
  TGI: 82.9 µM
OVCAR-4 ovarian
  GI50: 18.5 µM
  TGI: 34.5 µM

## COC(=O)Cc1nc2ccccc2o1
SK-OV-3 ovarian
  TGI: > 100 µM
NCI-H460 lung
  TGI: > 100 µM
NCI-H23 lung
  TGI: > 100 µM
UACC-257 melanoma
  TGI: > 100 µM
HOP-92 NSCLC
  TGI: > 100 µM
HT29 colon
  TGI: > 100 µM
KM12 colon
  TGI: > 100 µM
OVCAR-5 ovarian
  TGI: > 100 µM
OVCAR-3 ovarian
  TGI: > 100 µM
OVCAR-4 ovarian
  TGI: > 100 µM

## Cc1c(C(=O)O[C@H]2[C@@H]3[C@H](C)CC[C@H]3[C@]3(C)O[C@@]2(C2CCCCC2)C[C@H]3OC(=O)CO)ccc2ccccc12
SK-OV-3 ovarian
  GI50: 9.19 µM
  TGI: 17.1 µM
NCI-H460 lung
  GI50: 7.87 µM
  TGI: 16.6 µM
NCI-H23 lung
  GI50: 8.29 µM
  TGI: 17.7 µM
UACC-257 melanoma
  GI50: 7.83 µM
  TGI: 14.8 µM
HOP-92 NSCLC
  GI50: 4.19 µM
  TGI: 10.4 µM
HT29 colon
  GI50: 7.07 µM
  TGI: 14.2 µM
KM12 colon
  GI50: 8.35 µM
  TGI: 17.4 µM
OVCAR-5 ovarian
  GI50: 9.5 µM
  TGI: 17.8 µM
OVCAR-3 ovarian
  GI50: 7.57 µM
  TGI: 14.4 µM
OVCAR-4 ovarian
  GI50: 7.6 µM
  TGI: 14.3 µM

## O=C(CCl)Nc1cc(O)c2c(c1)C(=O)c1cccc(O)c1C2=O
SK-OV-3 ovarian
  GI50: 2.61 µM
  TGI: 18.1 µM
NCI-H460 lung
  GI50: 1.79 µM
  TGI: 3.92 µM
NCI-H23 lung
  GI50: 1.13 µM
  TGI: 3.45 µM
UACC-257 melanoma
  GI50: 2.52 µM
  TGI: 6.41 µM
HOP-92 NSCLC
  GI50: 1.79 µM
  TGI: 3.63 µM
HT29 colon
  GI50: 1.99 µM
  TGI: 3.89 µM
KM12 colon
  GI50: 1.74 µM
  TGI: 3.4 µM
OVCAR-5 ovarian
  GI50: 2.32 µM
  TGI: 5.19 µM
OVCAR-3 ovarian
  GI50: 1.23 µM
  TGI: 2.49 µM
OVCAR-4 ovarian
  GI50: 1.96 µM
  TGI: 7.23 µM

## C=CCCC(=O)N1C=CC(=O)[C@H](O)[C@@H]1/C=C/c1ccccc1
SK-OV-3 ovarian
  GI50: 18.6 µM
  TGI: > 32.5 µM
NCI-H460 lung
  GI50: 6.65 µM
  TGI: > 32.5 µM
NCI-H23 lung
  GI50: 23.6 µM
  TGI: > 32.5 µM
UACC-257 melanoma
  GI50: 18 µM
  TGI: > 32.5 µM
HOP-92 NSCLC
  GI50: 30.8 µM
  TGI: > 32.5 µM
HT29 colon
  GI50: 14.4 µM
  TGI: > 32.5 µM
KM12 colon
  GI50: 16 µM
  TGI: > 32.5 µM
OVCAR-5 ovarian
  GI50: > 32.5 µM
  TGI: > 32.5 µM
OVCAR-3 ovarian
  GI50: 6.13 µM
  TGI: > 32.5 µM
OVCAR-4 ovarian
  GI50: 5.67 µM
  TGI: > 32.5 µM

## O=C(CC(=O)c1ccccc1)c1ccccc1
SK-OV-3 ovarian
  GI50: 22.2 µM
  TGI: > 100 µM
NCI-H460 lung
  GI50: 7.94 µM
  TGI: 40 µM
NCI-H23 lung
  GI50: 13.6 µM
  TGI: 43.4 µM
UACC-257 melanoma
  GI50: 23.6 µM
  TGI: 84.5 µM
HOP-92 NSCLC
  GI50: 15.8 µM
  TGI: 51.3 µM
HT29 colon
  GI50: 30.1 µM
  TGI: > 100 µM
KM12 colon
  GI50: 3.98 µM
  TGI: > 100 µM
OVCAR-5 ovarian
  GI50: 25.6 µM
  TGI: > 100 µM
OVCAR-3 ovarian
  GI50: 16.2 µM
  TGI: 53.5 µM
OVCAR-4 ovarian
  GI50: 27.9 µM
  TGI: > 100 µM

## O=c1c2c3c(sc2n2c(-c4ccc(Br)cc4)nnc2n1Cc1ccccc1)CCCC3
SK-OV-3 ovarian
  GI50: 5.88 µM
  TGI: 18.8 µM
NCI-H460 lung
  GI50: 10.2 µM
  TGI: 22.3 µM
NCI-H23 lung
  GI50: 12.4 µM
  TGI: 31.3 µM
UACC-257 melanoma
  TGI: 11.9 µM
HOP-92 NSCLC
  GI50: 3.41 µM
  TGI: 16.1 µM
HT29 colon
  GI50: 20.6 µM
  TGI: 58.7 µM
KM12 colon
  GI50: 10.2 µM
  TGI: 24.7 µM
OVCAR-5 ovarian
  GI50: 9.1 µM
  TGI: 24.8 µM
OVCAR-3 ovarian
  GI50: 6.24 µM
  TGI: 20 µM
OVCAR-4 ovarian
  GI50: 6.03 µM
  TGI: 22.4 µM
